This passage reports Km results from publication PMC4544649, “A psychrotolerant strain of Serratia marcescens (MTCC 4822) produces laccase at wide temperature and pH range” (AMB Express, 2015).

What is called Km is the concentration of substrate that gives half-maximal velocity.

The test deals with laccase. To be noted: 0.10 M citrate-phosphate buffer pH 2.5, room temperature; ABTS 0.05-1.00 mM; partially purified enzyme.

As for `CCn1c(=NN=c2sc3cc(S(=O)(=O)O)ccc3n2CC)sc2cc(S(=O)(=O)O)ccc21` [ABTS, 2, 2'-azino-bis (3-ethylbenzothiazoline-6-sulphonic acid)], the Km amounted to 100 µM.
